Reference: ChEMBL document CHEMBL5360660, “Cyclin-Dependent Kinase Degradation via E3 Ligase Binding for Potential Disease Modulation in Cancer Treatment” (ACS Med Chem Lett, 2023)

Key:
[1] = target: Protein cereblon/Cyclin-dependent kinase 5 (Homo sapiens, UniProt Q00535+Q96SW2); experiment: PROTAC activity at CRBN/CDK5 in HEK293 cells assessed as induction of CDK5 degradation incubated for 24 hrs by Western blotting analysis; type: cell-based
[2] = target: Protein cereblon/Cyclin-dependent kinase 9 (Homo sapiens, UniProt P50750+Q96SW2); experiment: PROTAC activity at CRBN/CDK9 in HEK293 cells assessed as induction of CDK9 degradation incubated for 24 hrs by Western blotting analysis; type: cell-based
[3] = target: Protein cereblon/Cyclin-dependent kinase 2 (Homo sapiens, UniProt P24941+Q96SW2); experiment: PROTAC activity at CRBN/CDK2 in HEK293 cells assessed as induction of CDK2 degradation incubated for 24 hrs by Western blotting analysis; type: cell-based
[4] = target: Cyclin-dependent kinase 9 (Homo sapiens, UniProt P50750); experiment: Binding affinity to CDK9 (unknown origin) assessed as dissociation constant
[5] = target: Cyclin-dependent kinase 5 (Homo sapiens, UniProt Q00535); experiment: Binding affinity to CDK5 (unknown origin) assessed as dissociation constant
Chain of Cyclin-dependent kinase 5 (Q00535 whole entry): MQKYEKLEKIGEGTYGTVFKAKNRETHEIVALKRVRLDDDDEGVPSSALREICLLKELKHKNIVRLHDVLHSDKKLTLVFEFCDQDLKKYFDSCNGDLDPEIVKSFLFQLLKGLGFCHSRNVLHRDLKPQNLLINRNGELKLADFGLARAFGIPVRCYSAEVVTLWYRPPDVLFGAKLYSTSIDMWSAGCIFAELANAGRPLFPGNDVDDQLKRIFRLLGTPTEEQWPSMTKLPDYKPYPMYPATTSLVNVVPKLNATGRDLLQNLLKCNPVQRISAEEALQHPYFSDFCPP

Chain of Protein cereblon/Cyclin-dependent kinase 5 (Q00535 whole entry): as above
Chain of Protein cereblon/Cyclin-dependent kinase 5 (Q96SW2 whole entry): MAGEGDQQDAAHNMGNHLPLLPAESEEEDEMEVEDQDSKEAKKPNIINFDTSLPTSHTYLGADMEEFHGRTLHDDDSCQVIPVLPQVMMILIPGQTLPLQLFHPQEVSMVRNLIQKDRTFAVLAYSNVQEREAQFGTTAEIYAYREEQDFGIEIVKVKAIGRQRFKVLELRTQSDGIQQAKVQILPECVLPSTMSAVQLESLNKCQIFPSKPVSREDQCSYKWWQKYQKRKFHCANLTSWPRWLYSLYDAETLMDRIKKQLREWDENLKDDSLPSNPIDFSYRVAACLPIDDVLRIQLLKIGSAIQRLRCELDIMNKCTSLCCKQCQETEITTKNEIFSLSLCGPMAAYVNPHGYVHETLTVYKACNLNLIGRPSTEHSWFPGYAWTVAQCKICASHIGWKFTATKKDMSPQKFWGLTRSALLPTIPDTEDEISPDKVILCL
Chain of Protein cereblon/Cyclin-dependent kinase 9 (P50750 whole entry): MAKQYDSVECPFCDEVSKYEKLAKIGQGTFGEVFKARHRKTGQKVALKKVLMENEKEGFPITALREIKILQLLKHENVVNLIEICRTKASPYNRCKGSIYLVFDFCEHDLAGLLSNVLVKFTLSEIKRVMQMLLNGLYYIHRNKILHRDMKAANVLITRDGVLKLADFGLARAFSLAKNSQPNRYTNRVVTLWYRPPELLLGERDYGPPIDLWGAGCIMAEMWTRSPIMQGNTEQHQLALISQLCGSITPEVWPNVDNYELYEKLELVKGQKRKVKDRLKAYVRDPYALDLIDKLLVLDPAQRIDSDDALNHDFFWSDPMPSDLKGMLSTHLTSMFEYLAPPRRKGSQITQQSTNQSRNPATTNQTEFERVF
Chain of Protein cereblon/Cyclin-dependent kinase 9 (Q96SW2 whole entry): as the sequence (Q96SW2 whole entry) above
Chain of Cyclin-dependent kinase 9 (P50750 whole entry): as the sequence (P50750 whole entry) above

Structure (SMILES) | IC50 [1] | IC50 [2] | IC50 [3] | Kd [4] | Kd [5]
O=C(CCCOc1ccc(CC(=O)Nc2cc(C3CCC3)[nH]n2)cc1)NCCCCNc1cccc2c1C(=O)N(C1CCC(=O)NC1=O)C2=O (configuration not stated) | 0.007 µM | 0.53 µM | 0.155 µM | – | –
O=C1CCC(N2C(=O)c3cccc(OCCCCCOc4ccc(CC(=O)Nc5cc(C6CCC6)n[nH]5)cc4)c3C2=O)C(=O)N1 (configuration not stated) | 0.032 µM | 1.08 µM | – | 1.06 µM | 0.23 µM
